Assay [1] concerns the target T1, FAAH (Homo sapiens, UniProt O00519).
T1 construct: endogenous in cells; host or cells: U937 cell homogenate
T1 sequence (O00519 1-579): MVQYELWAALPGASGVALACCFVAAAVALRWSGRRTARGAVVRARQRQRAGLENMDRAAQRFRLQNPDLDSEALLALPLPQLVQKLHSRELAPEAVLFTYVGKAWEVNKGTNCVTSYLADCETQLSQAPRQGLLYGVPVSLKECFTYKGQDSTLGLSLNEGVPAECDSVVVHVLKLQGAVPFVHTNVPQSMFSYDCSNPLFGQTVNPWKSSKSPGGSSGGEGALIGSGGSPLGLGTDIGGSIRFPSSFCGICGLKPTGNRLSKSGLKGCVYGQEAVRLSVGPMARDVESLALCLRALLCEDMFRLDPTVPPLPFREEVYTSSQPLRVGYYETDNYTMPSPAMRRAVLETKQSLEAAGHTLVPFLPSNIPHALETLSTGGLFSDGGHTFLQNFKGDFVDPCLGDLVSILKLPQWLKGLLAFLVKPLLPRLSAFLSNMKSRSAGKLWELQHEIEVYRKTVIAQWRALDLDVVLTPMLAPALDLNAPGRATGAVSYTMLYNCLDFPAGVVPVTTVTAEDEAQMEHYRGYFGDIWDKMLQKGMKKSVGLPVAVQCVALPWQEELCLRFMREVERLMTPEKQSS
In words: FAAH activity: hydrolysis of [3H]-AEA in U937 cell homogenates. The assay is classed as biochemical. To be noted: [3H]-AEA hydrolysis, final 100 nM AEA, read-out: FAAH inhibition IC50. As to the method:
Hydrolysis of [^3H]-AEA by FAAH was determined as previously described in cell homogenates of U937 cells (0.18 mg protein) (Omeir et al., 1999, Biochem Biophys Res Commun, 264, 316-20; Mor et al., 2004, J Med Chem, 47, 4998-5008). Protein amounts of cell homogenates corresponded to 0.5×10^6 cells (U937), to assure best possible comparability of IC50 values as used for the AEA cellular uptake assays. URB597 was used as positive control. Protein quantification was performed using a BCA assay (Thermo Scientific). Enzyme activity was assessed by addition of vehicle or compounds in 10 μL DMSO to 490 μL homogenate in 10 mM Tris HCl, 1 mM EDTA, 0.1% (w/v) BSA fatty acid free, pH=8 and incubation for 15 min at 37° C. After, a mixture of AEA plus [ethanolamine-1-^3H]-AEA (0.5 nM) at final 100 nM was added to the homogenates and incubated for 15 min at 37° C. The reaction was stopped by addition of 1 mL ice-cold CHCl3:MeOH (1:1) followed by vigorous vortexing. Phase separation was achieved by centrifugation at 10'000×g at 4° C. for 10 min. Radioactivity of the separated aqueous phase (upper phase) containing [^3H-ethanolamine] or [^3H-glycerol] was measured by liquid scintillation counting on a Tri-Carb 2100 TR liquid scintillation analyzer after addition of 3.5 mL Ultima Gold scintillation cocktail (PerkinElmer Life Sciences). Results are expressed as hydrolysis of tritium substrate in percent of vehicle treated control. IC50 values were calculated by GraphPad®. Data are reported as means of n=3 independent experiments performed in triplicates.

In assay [2] the test system is AEA cellular uptake (U937 cells). Description: [3H]-AEA cellular uptake inhibition in U937 cells. The assay is classed as cell-based. To be noted: Homo sapiens, U-937, U937 cells, final 100 nM AEA with 0.5 nM [3H]-AEA, 15 min at 37° C.; read-out: AEA uptake IC50. The gist of the method:
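U937 cells (0.5×10^6 per sample) pre-incubated with compound (100 pM–100 μM, triplicates) for 15 min at 37 °C, then given 100 nM AEA including 0.5 nM [3H]-AEA for 15 min. Filtration, washing and scintillation counting of cell-associated radioactivity; IC50 by four-parameter nonlinear regression.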

pIC50: −log10 of the molar value. Bounds are passed on as bounds.

For orientation: pIC50 means the negative decadic logarithm of the IC50, by convention in mol/L. Take `O=C1/C(=C/c2ccccc2)S/C(=N\Cc2ccccc2)N1c1ccccc1` [23_C_N, (2Z,5Z)-5-benzylidene-2-(benzylimino)-3-phenylthiazolidin-4-one]: the negative-log IC50 (pIC50) was under 5.00 in assay [1] and 6.74 in assay [2].

With `O=C1/C(=C/c2ccc3c(c2)OCCO3)S/C(=N\c2ccccc2)N1C1CCCCC1` [24_N_I, (2Z,5Z)-3-cyclohexyl-5-((2,3-dihydrobenzo[b][1,4]dioxin-6-yl)methylene)-2-(phenylimino)thiazolidin-4-one], the figures for the pIC50 in assay [1] and in assay [2] were under 4.00 and 6.34, respectively.

Regarding `COc1ccc(N2C(=O)/C(=C/c3ccc4[nH]cnc4c3)S/C2=N\Cc2ccccc2)cc1` [04_C_F, (2Z,5Z)-5-((1H-benzo[d]imidazol-5-yl)methylene)-2-(benzylimino)-3-(4-methoxyphenyl)thiazolidin-4-one], the pIC50 was under 5.00 in assay [1] and 6.32 in assay [2].

For `O=C1/C(=C/c2ccc3[nH]cnc3c2)S/C(=N\c2ccc(F)cc2)N1C1CCCCC1` [04_B_I, (2Z,5Z)-5-((1H-benzo[d]imidazol-5-yl)methylene)-2-(4-fluorophenylimino)-3-cyclohexylthiazolidin-4-one], the pIC50 in assay [1] is 4.64; in assay [2], 6.88.

As for `Cc1ccc(N2C(=O)/C(=C/c3ccc(CO)cc3)S/C2=N\c2ccc(F)cc2)cc1` [22_B_A, (2Z,5Z)-5-(4-(hydroxymethyl)benzylidene)-2-(4-fluorophenylimino)-3-p-tolylthiazolidin-4-one], the pIC50 in assay [1] is under 4.00; in assay [2], 6.41.

On to `O=C1/C(=C/c2ccc3c(c2)OCCO3)S/C(=N\Cc2ccc(F)cc2)N1c1ccccc1` [24_P_N, (2Z,5Z)-2-(4-fluorobenzylimino)-5-((2,3-dihydrobenzo[b][1,4]dioxin-6-yl)methylene)-3-phenylthiazolidin-4-one], for which the figures for the negative logarithm of the IC50 (pIC50) in assay [1] and in assay [2] were 6.04 and 6.28, respectively.

For the compound `O=C1/C(=C/c2ccc(CO)cc2)S/C(=N\CCCc2ccccc2)N1c1ccccc1` [22_K_N, (2Z,5Z)-2-(3-phenylpropylimino)-5-(4-(hydroxymethyl)benzylidene)-3-phenylthiazolidin-4-one], the negative logarithm of the IC50 (pIC50) is 5.18 in assay [1] and 7.01 in assay [2].

With `O=C1/C(=C/c2ccc3c(c2)OCCO3)S/C(=N\Cc2ccc(F)cc2)N1c1ccc(Cl)cc1` [24_P_L, (2Z,5Z)-2-(4-fluorobenzylimino)-3-(4-chlorophenyl)-5-((2,3-dihydrobenzo[b][1,4]dioxin-6-yl)methylene)thiazolidin-4-one], the negative logarithm of the IC50 (pIC50) in assay [1] was 6.21; in assay [2], 7.29.

Turning to `O=C1/C(=C/c2ccc3c(c2)OCCO3)S/C(=N\c2ccccc2)N1c1ccccc1` [compound 24, (2Z,5Z)-5-((2,3-dihydrobenzo[b][1,4]dioxin-6-yl)methylene)-3-phenyl-2-(phenylimino)thiazolidin-4-one], the negative logarithm of the IC50 (pIC50) in assay [1] is under 4.00; in assay [2] it was 6.09.

Regarding `COc1ccc(C/N=C2\S/C(=C\c3ccc4c(c3)OCCO4)C(=O)N2C2CCCCC2)cc1` [24_Q_I, (2Z,5Z)-2-(4-methoxybenzylimino)-3-cyclohexyl-5-((2,3-dihydrobenzo[b][1,4]dioxin-6-yl)methylene)thiazolidin-4-one], the pIC50 in assay [1] is 7.43; in assay [2], 7.46.

`O=C1/C(=C/c2ccc3c(c2)OCCO3)S/C(=N\Cc2ccc(F)cc2)N1c1ccc(F)cc1` [24_P_B, (2Z,5Z)-2-(4-fluorobenzylimino)-3-(4-fluorophenyl)-5-((2,3-dihydrobenzo[b][1,4]dioxin-6-yl)methylene)thiazolidin-4-one]: the pIC50 in assay [1] was 4.95; in assay [2], 5.98.

As to `Cc1ccc(/N=C2\S/C(=C\c3ccc4c(c3)OCCO4)C(=O)N2C2CCCCC2)cc1` [24_A_I, (2Z,5Z)-3-cyclohexyl-5-(2,3-dihydro-1,4-benzodioxin-6-ylmethylene)-2-(p-tolylimino)thiazolidin-4-one], the negative-log IC50 (pIC50) in assay [1] is under 4.00; in assay [2] it was 6.52.

Take `COc1ccc(C/N=C2\S/C(=C\c3ccc4c(c3)OCCO4)C(=O)N2CC(C)C)cc1` [24_Q_X, (2Z,5Z)-2-(4-methoxybenzylimino)-5-((2,3-dihydrobenzo[b][1,4]dioxin-6-yl)methylene)-3-isobutylthiazolidin-4-one]: the pIC50 in assay [1] was 6.37; in assay [2], 6.86.

As to `O=C1/C(=C/c2ccc3ncsc3c2)S/C(=N\c2ccccc2)N1c1ccccc1` [compound 32, (2Z,5Z)-5-((benzo[d]thiazol-6-yl)methylene)-3-phenyl-2-(phenylimino)thiazolidin-4-one], the negative-log IC50 (pIC50) in assay [1] is under 4.00; in assay [2] it was 6.54.

In the case of `O=C1/C(=C/c2ccc3[nH]cnc3c2)S/C(=N\c2ccccc2)N1c1ccccc1` [compound 04, (2Z,5Z)-5-((1H-benzo[d]imidazol-5-yl)methylene)-3-phenyl-2-(phenylimino)thiazolidin-4-one], the results for the pIC50 in assay [1] and in assay [2] were under 4.00 and 6.71, respectively.

For `COc1ccc(C/N=C2\S/C(=C\c3ccc4c(c3)OCCO4)C(=O)N2c2ccc(F)cc2)cc1` [24_Q_B, (2Z,5Z)-2-(4-methoxybenzylimino)-3-(4-fluorophenyl)-5-((2,3-dihydrobenzo[b][1,4]dioxin-6-yl)methylene)thiazolidin-4-one], the pIC50 is 5.89 in assay [1] and 7.48 in assay [2].

For the compound `Cc1ccc(/N=C2\S/C(=C\c3ccc4ncsc4c3)C(=O)N2CC(C)C)cc1` [32_A_X, (2Z,5Z)-2-(p-tolylimino)-5-((benzo[d]thiazol-6-yl)methylene)-3-isobutylthiazolidin-4-one], the pIC50 in assay [1] was under 4.00; in assay [2], 6.49.

Take `COc1ccc(C/N=C2\S/C(=C\c3ccc4c(c3)OCCO4)C(=O)N2c2ccc(C)cc2)cc1` [24_Q_A, (2Z,5Z)-2-(4-methoxybenzylimino)-5-((2,3-dihydrobenzo[b][1,4]dioxin-6-yl)methylene)-3-p-tolylthiazolidin-4-one]: the figures for the pIC50 in assay [1] and in assay [2] were under 4.00 and 6.79, respectively.

For the compound `O=C1/C(=C/c2ccc3c(c2)OCCO3)S/C(=N\Cc2ccc(F)cc2)N1C1CCCCC1` [24_P_I, (2Z,5Z)-2-(4-fluorobenzylimino)-3-cyclohexyl-5-((2,3-dihydrobenzo[b][1,4]dioxin-6-yl)methylene)thiazolidin-4-one], the pIC50 was 6.77 in assay [1] and 7.06 in assay [2].

Consider `Cc1ccc(/N=C2\S/C(=C\c3ccc(CO)cc3)C(=O)N2c2ccccc2)cc1` [22_A_N, (2Z,5Z)-5-(4-(hydroxymethyl)benzylidene)-2-(p-tolylimino)-3-phenylthiazolidin-4-one], for which the figures for the negative logarithm of the IC50 (pIC50) in assay [1] and in assay [2] were 4.71 and 6.95, respectively.

As for `Cc1ccc(/N=C2\S/C(=C\c3ccc4[nH]cnc4c3)C(=O)N2c2ccccc2)cc1` [04_A_N, (2Z,5Z)-5-((1H-benzo[d]imidazol-5-yl)methylene)-2-(p-tolylimino)-3-phenylthiazolidin-4-one], the pIC50 in assay [1] is under 4.00; in assay [2] it was 6.97.

(Values after US10155754B2, “Substituted 2-imino-1,3-thiazolidin-4-ones as N-arachidonoylethanolamine cellular uptake inhibitors” (UNIVERSITAT BERN, priority 2014, dated 2018).)
